# According to patent US8426684B2 (Washington State University Research Foundation, priority 2004, dated 2013):
# Values joined by “and” are separate entries in the source; they are usually repeats but may differ in a detail not shown here. Identical values can stand only once.
# Tests used:
# [1] = target: T1, menthone: (3R)-(−)-menthol reductase (SEQ ID NO:2) (Mentha x piperita, UniProt Q5CAF4); experiment: Substrate specificity of the reductase; assay type: biochemical; details: 100 μM monoterpenone substrate, 500 μM NADPH, 0.5 μg reductase, pH optimum, overnight incubation
# [2] = target: T1, menthone: (3R)-(−)-menthol reductase (SEQ ID NO:2); details: at saturation under linear reaction conditions
# Procedure: Assay mixtures containing 2 ml of 40 mM KH2PO4 at pH 7, with 10 mM β-mercaptoethanol were combined with 500 μM cofactor and concentrations of monoterpene substrate ranging from 2.5 μM to 1 mM, or with 100 μM monoterpene substrate, and concentrations of cofactor ranging from 0.1 μM to 1 mM, and preheated to 31° C. before initiation of the reaction by enzyme addition (0.008 to 1.3 μg protein). The reactions were quenched after 6 to 9 min by addition of 0.5 ml pentane containing camphor as internal standard (6.6 μM) followed by vigorous mixing and cooling on ice; quantitation of products in the pentane extract was achieved by capillary-GC using the conditions described above with peak area quantification using the internal standard for normalization. […] Kinetic constants, representing the average of at least two independent experiments, were determined by nonlinear regression analysis of Michaelis-Menten plots using Enzyme Kinetics, v 1.11 (Trinity Software, Plymouth, N.H.). The values reported are the means±standard error.
# [3] = target: T1, menthone: (3R)-(−)-menthol reductase (SEQ ID NO:2); experiment: In vitro demonstration of menthone reductase activity (product analysis by GC, GC-MS); assay type: biochemical; details: partially purified recombinant protein
# Procedure: Bacteria harboring the pSBET-reductase plasmid or the pET-reductase plasmid were grown in 5 ml cultures of Luria-Bertani (LB) media to an OD600 of 0.8-1.0, at which time the cultures were cooled to 10° C., isopropyl-β-D-thiogalactopyranoside was added to 0.25 mM, and growth was continued for 12-18 h at 10° C. with shaking at 220 rpm. Cells were pelleted by centrifugation for 25 min at 2500 g and 4° C., and then resuspended in 1 ml resuspension buffer (50 mM Mopso, pH 7, with 10% (v/v) glycerol, 10% (w/v) sorbitol, and 10 mM […]) containing 0.4 mg/ml lysozyme. Following incubation on ice for 30 min, the extract was sonicated for 10 sec with a Virtis sonicator using a microtip probe at medium power. Cell debris was pelleted by centrifugation at 27,000 g at 4° C. for 30 min, and the supernatant, containing the operationally soluble reductase, was used for initial characterization.
# Following incubation with gentle shaking at 31° C. for 12 h, 0.5 ml of pentane was added and the mixture was vigorously mixed to extract the monoterpene products which were analyzed by GC and GC-MS as described above. […] Following 15 h of shaking (250 rpm) at 15-20° C., these cultures were transferred to 0.5 L round-bottom flasks, to which 6.6 μmol of (+)-camphor was added as an internal standard, and the mixture was steam distilled and the distillate analyzed as described above.
# [4] = substrate: CC(C)[C@@H]1CC[C@@H](C)CC1=O; experiment: purified protein, by the assay type; details: other: monoterpene substrate, NADPH as cofactor, reductase expressed from pSBET, pH 7, 31° C., means±standard error
# [5] = substrate: CC(C)[C@H]1CC[C@@H](C)CC1=O; experiment: purified protein, by the assay type; details: other: monoterpene substrate, NADPH as cofactor, reductase expressed from pSBET, pH 7, 31° C., means±standard error
# [6] = target: T1, menthone: (3R)-(−)-menthol reductase (SEQ ID NO:2); experiment: pH optimum of the reductase; assay type: biochemical; details: 25 μM menthone, 500 μM NADPH, 0.5 μg protein, 6 min at 31° C.
# [7] = from (+)-isomenthone in the presence of NADPH
# [8] = from (−)-menthone in the presence of NADPH
molecule,measurement,setting,value
C=C(C)[C@H]1CC[C@@H](C)CC1=O (relative stereo) [(+)-cis-isopulegone],reduction of alternate substrate to the corresponding monoterpenols,[1],only able to detectably reduce (+)-menthone
"C=C(C)C1CC=C(C)C(=O)C1 (single isomer, unassigned; (-)) [(−)-carvone]",reduction of alternate substrate to the corresponding monoterpenols,[1],only able to detectably reduce (+)-menthone
"C=C(C)C1CCC(C)=CC1=O (single isomer, unassigned; (-)) [(−)-isopiperitenone]",reduction of alternate substrate to the corresponding monoterpenols,[1],only able to detectably reduce (+)-menthone
CC(C)=C1CC[C@@H](C)CC1=O [(+)-pulegone],reduction of alternate substrate to the corresponding monoterpenols,[1],only able to detectably reduce (+)-menthone
NC(=O)C1=CN([C@@H]2O[C@H](COP(=O)(O)OP(=O)(O)OC[C@H]3O[C@@H](n4cnc5c(N)ncnc54)[C@H](O)[C@@H]3O)[C@@H](O)[C@H]2O)C=CC1 [NADH],turnover with NADH as cofactor compared with NADPH,[2],less than 20%
"CC(C)[C@H]1CC[C@@H](C)CC1=O [isomenthone, (+)-isomenthone]",product share (3R)-(+)-neoisomenthol,[3]; [7],87%
same,product share (3S)-(+)-isomenthol,[3]; [7],13%
"CC(C)[C@@H]1CC[C@@H](C)CC1=O [menthone, (−)-menthone]",product share (3R)-(−)-menthol,[3]; [8],95%
same,product share (3S)-(+)-neomenthol,[3]; [8],5%
(+)-menthone,reduction of alternate substrate to the corresponding monoterpenols,[1],detectably reduce
menthone: (3R)-(−)-menthol reductase (SEQ ID NO:2) (Mentha x piperita) (protein) MADTFTQRYALVTGANKGIGFEICRQLASKGMKVILASRNEKRGIEARERLLKESRSISDDDVVFHQLDVADPASAVAVAHFIETKFGRLDILVNNAGFTGVAIEGDISVYQECLEANIIAAQGGQAHPFHPKTTGRLIETLEGSKECIETNYYGTKRITETLIPLLQKSDSPTIVNVSSTFSTLLLQPNEWAKGVFSSNSLNEGKVEEVLHEFLKDFIDGKLQQNHWPPNFAAYKVSKAAVNAYTRIIARKYPSFCINSVCPGFVRTDICYNLGVLSEAEGAEAPVKLALLPDGGPSGSFFSREEALSLY,Km,[4],3.0 ± 0.6 µM
same,kcat,[4],0.6 s⁻¹
same,Km,[5],41 ± 5 µM
"reductase (SEQ ID NO:2): recombinant peppermint menthone: (3R)-(−)-menthol reductase, 311 residue protein encoded by cDNA SEQ ID NO:1, expressed in E. coli (protein, Mentha Piperita) MADTFTQRYALVTGANKGIGFEICRQLASKGMKVILASRNEKRGIEARERLLKESRSISDDDVVFHQLDVADPASAVAVAHFIETKFGRLDILVNNAGFTGVAIEGDISVYQECLEANIIAAQGGQAHPFHPKTTGRLIETLEGSKECIETNYYGTKRITETLIPLLQKSDSPTIVNVSSTFSTLLLQPNEWAKGVFSSNSLNEGKVEEVLHEFLKDFIDGKLQQNHWPPNFAAYKVSKAAVNAYTRIIARKYPSFCINSVCPGFVRTDICYNLGVLSEAEGAEAPVKLALLPDGGPSGSFFSREEALSLY",pH of half maximal activities,[6],4.5 and 8.5
same,pH optimum,[6],7.0
